Measured values reported in patent publication US6063814A, “Phorbol esters as anti-neoplastic and white blood cell elevating agents” (priority 1997, dated 2000).
Read-outs that look alike come from different tables or passages of the source.

Legend:
cell cultures = settings: Chemsyn product brochure; cited from earlier work
[1] = test system: Peripheral White Blood Cells (WBC) and Hemoglobin (Hb); assay: Peripheral white blood cell and hemoglobin counts in S180 cell-injected mice; format: in vivo; settings: for WBC count: control 13.6±1.8; for Hb: control 134±15
Description: Effect of TPA on the Peripheral White Blood Cells (WBC) and Hemoglobin (Hb) Counts in S180 Cell-Injected Mice:
S180 cells were injected into mice. On the third day, the mice were given TPA i.p. at 50, 100 or 200 μg/kg/d for 7 days. On the second day after the treatment was completed, blood samples were taken from the tails of the treated mice for WBC and Hb analyses.

[2] = test system: skin and the mucous membrane; settings: cited from earlier work
[3] = test system: S180 (Sarcoma 180) tumor cells; assay: Tumor growth inhibition in mice injected with S180 (Sarcoma 180) tumor cells; format: in vivo, Kwen-Ming mice
Description: Effect of TPA in Mice Injected With S180 (Sarcoma 180) Tumor Cells:
Eight groups of Kwen-Ming mice containing 7 mice per group were used in the following experiment. Two groups were untreated and six groups received the drug.
Each Kwen-Ming mouse was injected with 5×10^6 S180 cells at the under-arm position. After 24 or 72 h, the animals were given TPA i.p. or locally at the tumor site. The injected doses of TPA were 50, 100 and 200 μg/kg/d for 7 days. The animals were sacrificed 24 hrs after the final TPA treatment and the tumors were weighed to calculate the extent of the tumor growth inhibition.

HL-60 cells = assay: Effect of TPA in a human promyelocytic leukemia cell line (HL-60); format: cell-based; settings: 10, 20 or 100 ng/ml
Description: 1. Effect of TPA in a Human Promyelocytic Leukemia Cell Line (HL-60):
HL-60 cells at 2×10^6 cells/ml were treated with TPA. The final concentrations of TPA were 10, 20, or 100 ng/ml. The ethanol content was less than 0.01%.

[4] = test system: human leukemia cell line HL-60; settings: cited from earlier work
B16 tumor cells = assay: Tumor growth inhibition in mice injected with B16 tumor cells; format: in vivo, C57 mice; settings: statistically different from control
Description: Effect of TPA in Mice Injected with B16 Tumor Cells:
Four groups of C57 mice were used in the experiment. Each group contained 7 mice and one group was untreated. Each C57 mouse was injected with 0.2 ml of supernatant of a 1:6 w/v homogenate of B16 cells at the under-arm position. On the third day, each treatment group was given TPA i.p. at 50, 100 or 200 μg/kg/d for 8 days.

[5] = format: in vivo, humans
Description: TPA solution in a sterile syringe was injected into 200 ml of saline and mixed well for i.v. infusion.
2. The Toxicity and Side Effects of Different TPA Doses Administered Clinically:
One mg TPA in solution was mixed well with 200 ml of saline for i.v. infusion which was completed in 1 h at the rate of 16 μg/min. […] The above symptoms could be alleviated by giving the patients glucocorticoids. […] The cardiac, hepatic, renal and pulmonary functions were all found to be normal.
0.5 mg of TPA in solution was mixed well with 200 ml of saline for i.v. infusion which was completed in 1 h at the rate of 8 μg/min. […] Difficulty in breathing was not observed. The cardiac, hepatic, renal and pulmonary functions were all normal.
0.25 mg of TPA in solution was mixed well with 200 ml of saline for i.v. infusion which was completed in 1 h at the rate of 4 μg/min. […] The cardiac, hepatic, renal and pulmonary functions were all normal.

[6] = Chemical stability of TPA solutions on storage; format: physicochemical; settings: dark
Description: 0.10, 0.125, 0.25 or 0.5 mg of TPA was dissolved in 1.3 ml 95-100% U.S.P. ethanol and 0.7 ml saline. Under sterile conditions, TPA was first dissolved in ethanol, then saline was added, mixed vigorously, bacteriologically filtered, and stored in sealed sterile amber vials containing either 0.10 mg/2 ml, 0.125 ml/2 ml or 0.25 mg/2 ml, 0.5 mg/2 ml.
0.10, 0.125, 0.25 or 0.5 mg of TPA was dissolved in 0.2 ml of ethanol, 1.2 ml of isopropanol and 0.6 ml saline. Under sterile conditions, TPA was first dissolved in the ethanol and isopropanol, then saline was added, and the mixture was vigorously mixed, bacteriologically filtered and stored in sealed sterile amber vials containing either 0.10 mg/2 ml, 0.125 ml/2 ml or 0.25 mg/2 ml or 0.5 mg/2 ml.

[7] = test system: leukemia (bone marrow myeloblast and promyelocyte); assay: Clinical treatment of leukemia patients with TPA; format: in vivo, humans
[8] = 0.25 mg/patient×4/week, i.v. infusion in 1 h
[9] = 0.5 mg/patient×2/week, i.v. infusion in 1 h
[10] = 1 mg/patient/week, i.v. infusion in 1 h
[11] = subject 8, AML-M3, retinoic acid failed
[12] = subject 9, secondary aplastic anemia, TPA 0.25 mg×2

Structure (SMILES): CCCCCCCCCCCCCC(=O)O[C@@H]1[C@@H](C)[C@@]2(O)[C@@H](C=C(CO)C[C@]3(O)C(=O)C(C)=C[C@@H]23)[C@@H]2C(C)(C)[C@]12OC(C)=O [TPA, Phorbol 12-Myristate-13-Acetate]
- mitogenic activity (cell cultures): powerful mitogen in cell cultures
- WBC count ([1]; i.p. 50 μg/kg/d for 7 d): 16.1±7.4 ×10^9 /L
- Hb ([1]; i.p. 50 μg/kg/d for 7 d): 136 ± 11 g/L
- WBC count ([1]; i.p. 100 μg/kg/d for 7 d): 18.7±3.0 ×10^9 /L
- Hb ([1]; i.p. 100 μg/kg/d for 7 d): 149 ± 12 g/L
- WBC count ([1]; i.p. 200 μg/kg/d for 7 d): 20.7±3.4 ×10^9 /L
- Hb ([1]; i.p. 200 μg/kg/d for 7 d): 149 ± 10 g/L
- effect on Hb levels ([1]; i.p. 50-200 μg/kg/d for 7 d): not greatly affected
- effect on peripheral WBC counts ([1]; i.p. 50-200 μg/kg/d for 7 d): could increase the peripheral WBC counts in mice in a dose-dependent manner
- harm on oral ingestion [2]: harmful if ingested orally
- irritant to skin [2]: highly potent irritant to skin
- tumor cell differentiation (pathological studies) ([3]; after TPA treatment): the tumor cells were differentiated
- inhibition of tumor growth ([3]; i.p. 50 μg/kg daily for 7 days): 41.7%
- inhibition of tumor growth ([3]; i.p. 100 μg/kg daily for 7 days): 54.8%
- inhibition of tumor growth ([3]; i.p. 200 μg/kg daily for 7 days): 30.4%
- inhibition of tumor growth ([3]; locally at tumor site, 50 μg/kg daily for 7 days): 35.5%
- inhibition of tumor growth ([3]; locally at tumor site, 100 μg/kg daily for 7 days): 49.3%
- inhibition of tumor growth ([3]; locally at tumor site, 200 μg/kg daily for 7 days): 59.2%
- differentiation to macrophages (HL-60 cells; after 4-6 days): the majority of the cells were induced to differentiate to macrophages in a dose-dependent manner
- cell aggregation and attachment (HL-60 cells; after 3 hours): cell aggregation and attachment to the dish were observed
- proliferation of HL-60 cells (HL-60 cells; after 3 hours): stopped proliferating
- morphological changes (HL-60 cells; after 48 h): there were morphological changes
- differentiation to nondividing macrophage-like cells ([4]; Weinberg, Science 213:655-657, 1981): causes differentiation of cells of the human leukemia cell line HL-60 to nondividing macrophage-like cells
- induction of differentiation ([4]; stable human promyelocytic leukemic cell line HL-60): induces differentiation
- rate of inhibition of tumor growth (B16 tumor cells; i.p. 50 μg/kg/d for 8 days): 40.0%
- rate of inhibition of tumor growth (B16 tumor cells; i.p. 100 μg/kg/d for 8 days): 59.4%
- rate of inhibition of tumor growth (B16 tumor cells; i.p. 200 μg/kg/d for 8 days): 32.1%
- Hb in urine [5, 8]: No Hb was detected in the urine
- cardiac, hepatic, renal and pulmonary functions [5, 8]: normal
- chills and fever [5, 8]: also observed, but to a much lesser extent than with the higher dosages
- difficulty in breathing [5, 8]: no patient suffered difficulty in breathing
- Hb in urine [5, 9]: Occasionally, Hb was detected in patients urine
- cardiac, hepatic, renal and pulmonary functions [5, 9]: normal
- difficulty in breathing [5, 9]: not observed
- tolerability ([5]; 0.5 mg/patient×2/week, versus 1 mg): tolerated the lower dose more easily
- Hb in urine [5, 10]: Hb was detected in the urine
- bleeding [5, 10]: a minority of patients to bleed
- cardiac, hepatic, renal and pulmonary functions [5, 10]: normal
- difficulty in breathing [5, 10]: several patients suffered for a short period of time difficulty in breathing
- duration of chills [5, 10]: about 30 min
- duration of fever [5, 10]: 3 to 5 h
- fever, patients' temperature [5, 10]: 37.5-39.5 °C
- onset of chills [5, 10]: One hour after TPA administration
- perspiration [5, 10]: light to heavy perspiration
- reversibility of side effects [5, 10]: short lived and reversible
- local irritation ([5]; TPA application): strong local irritation
- chemical change on storage ([6]; cold temperature, up to one year): no chemical change
- chemical change on storage ([6]; room temperature, up to two months): no chemical change
- Bone marrow myeloblast+promyelocyte after TPA treatment [7, 11]: 17%
- Hb after TPA treatment [7, 11]: 66 g/L
- WBC after TPA treatment [7, 12]: 1.9e+09 L⁻¹
- treatment termination [7, 12]: Due to severe anemia, the TPA treatment was terminated
- Bone marrow Myeloblast and promyelocyte, early in TPA treatment ([7]; subject 10, CML, 0.25 mg TPA once): 9%
- myeloblast, promyelocyte, myelocyte ([7]; subject 10, CML, TPA 0.25 mg once, fifth day): completely disappeared
